In patent US20070016983A1, “Controlling gene expressions in plastids” (Icon Genetics AG, priority 2003, published 2007):

System: lac repressor/operator system controlling plastome-encoded smGFP
Test: Chemical induction of plastid GFP transgene expression by spraying a transplastomic tobacco plant with IPTG (Western blot)
Format: in vivo, Nicotiana tabacum
Description: FIG. 2: Immunological detection of GFP expression after induction with IPTG. • A) Plastid transformant 557-1 containing the smGFP gene under the control of the 16S-lac3 promoter and the lacl gene (transformation vector plCF1050-1), was analyzed for its GFP content by Western blotting. For the uninduced sample (−), a young leaf of a ca. 7 cm high plant was removed before spraying the plant with a 1 mM IPTG solution. For the induced sample (+), the next youngest leaf was cut four days after spraying. The amount of total soluble protein loaded on the gel is given on the top of the lanes. • B) Lower amounts of protein of the induced sample shown in A were loaded on the gel in order to allow quantification in comparison with the uninduced sample. In addition, protein from further leaves that were cut seven days after spraying was loaded. Leaf a was the next youngest leaf, leaf b an older leaf. Compared with a GFP standard, the amount of GFP in the first lane is in the range of 15 to 20 ng.
Tobacco seeds (Nicotiana tabacum cv. petite havana) were surface sterilized (1 min in 70% ethanol, 10 min in 5% Dimanin C, Bayer, Leverkusenr, Germany), washed 3 times for 10 min in sterile H2O and put on SCN-medium (Dovzhenko et al., 1998). Plants were grown at 25° C. in a 16 h light/8 h dark cycle (0.5-1 W/m^2 Osram L85W/25 Universal-White fluorescent lamps). Protoplast isolation was made according to Dovzhenko et al. (1998). Transformation using polyethyleneglycol (PEG) was performed as described in Koop et al. (1996), and alginate embedding according to Dovzhenko et al. (1998). After one week of culture in liquid medium, cells were transferred to agar-solidified RMOP-medium (Svab et al., 1990) containing 25 μg/ml kanamycin to select for transformants. Green regenerates were retrieved after […] and transferred to individual plates. In order to achieve homoplastomy, the individual lines were subjected to repeated cycles of shoot generation by cutting small leaf pieces which form new regenerates on RMOP-medium with 15 μg/ml kanamycin. Rooting of selected regenerates was done on SCN-medium containing 15 μg/ml spectinomycin. […]
A transplastomic plant generated with plCF10501 was grown on SCN-medium to a height of ca. 7 cm. […] After four and seven days, respectively, the next youngest leaf was cut off and also analyzed. […] Protein quantification was made according to the Bradford method with RotiQuant solution. Proteins were separated on a 15% polyacrylamide gel and transferred to nitrocellulose membrane, and GFP was detected immunologically using the ECL method (primary antibody directed against a recombinant protein corresponding to GFP from A. victoria; Santa Cruz Biotechnology).

With `CC(C)S[C@@H]1O[C@H](CO)[C@H](O)[C@H](O)[C@H]1O` [IPTG, isopropyl-D-thiogalactopyranoside] the “amount of GFP in the first lane compared with a GFP standard” value (FIG. 2B, first lane, Western blot of plastid transformant 557-1 sprayed with 1 mM IPTG) was 15 to 20 ng, the “green fluorescence of leaves” value (after spraying with 1 mM IPTG, leaves irradiated with ultraviolet/blue light) was “increase in green fluorescence” and the “amount of GFP in the leaves” value (plant sprayed with ca. 1 ml of 1 mM IPTG, leaf cut seven days after spraying, Western blot, FIG. 2) was “a further increase could be observed”. For the same molecule, the “increase of the amount of GFP in the leaves” value (plant sprayed with ca. 1 ml of 1 mM IPTG, next youngest leaf cut four days after spraying vs leaf cut before spraying, Western blot, FIG. 2) was “about 10 fold”.
